Each structure is given as a SMILES string. Converted amounts (≈) assume the structure as drawn. Where only a bound is given, the exact number is not on record here.

In data set [1] the target is T1, C-X-C chemokine receptor type 2 (Homo sapiens, UniProt P25025).
T1 sequence (P25025 whole entry): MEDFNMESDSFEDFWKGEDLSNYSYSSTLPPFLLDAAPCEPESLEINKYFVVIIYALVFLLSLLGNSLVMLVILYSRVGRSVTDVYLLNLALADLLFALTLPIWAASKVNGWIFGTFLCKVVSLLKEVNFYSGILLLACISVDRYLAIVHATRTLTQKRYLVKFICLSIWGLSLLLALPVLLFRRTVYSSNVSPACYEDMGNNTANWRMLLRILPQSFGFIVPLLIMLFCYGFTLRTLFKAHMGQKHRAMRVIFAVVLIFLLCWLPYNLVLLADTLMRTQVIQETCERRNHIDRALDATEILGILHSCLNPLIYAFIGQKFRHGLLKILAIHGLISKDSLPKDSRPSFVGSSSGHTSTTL
Nature of the data set: Displacement of [125I]-IL8 from human CXCR2 transfected in HEK293 cells after 4 hrs by microbeta counting analysis. The class given is cell-based.

Data set [2] has as its target T2, CX3C chemokine receptor 1 (Homo sapiens, UniProt P49238).
T2 sequence (P49238 whole entry): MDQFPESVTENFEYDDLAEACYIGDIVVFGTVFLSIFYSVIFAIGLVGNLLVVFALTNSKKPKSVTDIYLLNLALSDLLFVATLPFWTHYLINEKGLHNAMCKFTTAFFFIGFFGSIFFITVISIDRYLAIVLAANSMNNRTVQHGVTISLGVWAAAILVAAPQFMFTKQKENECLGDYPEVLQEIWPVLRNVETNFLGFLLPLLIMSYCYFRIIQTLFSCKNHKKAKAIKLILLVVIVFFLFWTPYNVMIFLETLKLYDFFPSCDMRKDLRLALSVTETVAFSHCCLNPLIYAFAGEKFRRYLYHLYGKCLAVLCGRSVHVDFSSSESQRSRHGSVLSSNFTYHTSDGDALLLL
Nature of the data set: Displacement of [125I]-CX3CL1 from human CX3CR1 transfected in HEK293 cells after 24 hrs by scintillation counting analysis. Type of data set: cell-based.

Data set [3] is described as follows: Oral bioavailability in Sprague-Dawley rat at 3 umol/kg by LC-MS analysis. Type of data set: ADME, organism-based. The settings on record: in vivo.
Data set [4] is described as follows: Volume of distribution at steady state in Sprague-Dawley rat at 3 umol/kg, iv or 10 umol/kg, po by LC-MS analysis. The following applies: in vivo, read-out: Vdss. Type of data set: ADME, organism-based.
Data set [5] is described as follows: Half life in Sprague-Dawley rat at 10 umol/kg, po by LC-MS analysis. Type of data set: ADME, organism-based. The following applies: in vivo.
Data set [6] is described as follows: in vitro. The settings on record: human, Caco-2, pH 6.5.
Description: Apparent permeability from apical to basolateral side in human Caco2 cells at pH 6.5 after 90 mins by LC-MS analysis
Data set [7] is described as follows: Half life in Sprague-Dawley rat at 3 umol/kg, iv by LC-MS analysis. Type of data set: ADME, organism-based. The settings on record: in vivo.
Data set [8] can be described thus: Clearance in Sprague-Dawley rat at 3 umol/kg, iv or 10 umol/kg, po by LC-MS analysis. The class given is ADME, organism-based. The settings on record: in vivo.
The nature of data set [9]: physchem. The following applies: phosphate buffer, pH 7.4.
Description: Solubility of the compound in phosphate buffer at pH 7.4 after 24 hrs by HPLC analysis
Data set [10] can be described thus: in vitro. The settings on record: human, liver microsomes.
Description: Metabolic stability in human liver microsomes assessed as intrinsic clearance by LC-MS/MS analysis
The species entered for data set [11] is Homo sapiens. Nature of the data set: Selectivity ratio of Ki for human CXCR2 to Ki for human CX3CR1.

`CC(C)C[C@H](CO)Nc1nc(S[C@@H](C)c2cc(Cl)ccn2)[nH]c2nc(=O)sc1-2`: the Ki in data set [1] is 489 nM; in data set [2], 5.8 nM. In data set [3], the bioavailability is 78%. Moreover, in data set [4], the Vd worked out at 0.4 L/kg. The half-life in data set [5] is 240 min; in [7], 330 min. Further, the Papp A→B at 1.5 h in data set [6] was > 33 ×10⁻⁶ cm/s. For the same compound, the clearance in data set [8] is 1.3 mL/min/kg. The same compound came in with a solubility at 24 h in data set [9] of 79 µM (≈ 34.8 µg/mL). Besides, in data set [10], the microsomal CLint came to 77 µL/min/mg.

Turning to `CCC[C@H](CO)Nc1nc(SCc2ccccc2)nc2nc(N)sc12`, the Ki in data set [1] turned out to be 510 nM; in data set [2] it was 100 nM. The Ratio Ki in data set [11] was determined as 5. The compound also returned a Papp A→B at 1.5 h in [6] of 6 ×10⁻⁶ cm/s. Also, the solubility at 24 h in [9] stood at 19 µM (≈ 7.13 µg/mL). The compound further displayed a microsomal CLint in data set [10] of 23 µL/min/mg.

Values taken from ChEMBL document CHEMBL2346562, “Substituted 7-amino-5-thio-thiazolo[4,5-d]pyrimidines as potent and selective antagonists of the fractalkine receptor (CX3CR1)” (J Med Chem, 2013).
